# Results: patent US20240228488A1 (TAKEDA PHARMACEUTICAL COMPANY LIMITED, priority 2021, published 2024)
# Biological target: human activated kallikrein enzyme (Homo sapiens, UniProt P03952)
# Assay: Plasma kallikrein inhibition, fluorogenic PFR-AMC substrate, 500 pM activated kallikrein format
# Assay type: biochemical
# Conditions: 500 pM activated kallikrein, 300 uM PFR-AMC, 30 min preincubation, 10 min reaction; read-out: Primary Dose Response Assay: Average EC50
# Method in brief: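 500 pM enz + cpd, 30 min RT preinc; start w/ PFR-AMC 300 uM; 10 min RT; Ex380/Em460. Buffer: Tris 20 mM pH 7.5, EDTA 1 mM, NaCl 150 mM, PEG-400 0.1%, Triton 0.1%. EC50.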
# human activated kallikrein enzyme, sequence (P03952 391-638 limits assumed): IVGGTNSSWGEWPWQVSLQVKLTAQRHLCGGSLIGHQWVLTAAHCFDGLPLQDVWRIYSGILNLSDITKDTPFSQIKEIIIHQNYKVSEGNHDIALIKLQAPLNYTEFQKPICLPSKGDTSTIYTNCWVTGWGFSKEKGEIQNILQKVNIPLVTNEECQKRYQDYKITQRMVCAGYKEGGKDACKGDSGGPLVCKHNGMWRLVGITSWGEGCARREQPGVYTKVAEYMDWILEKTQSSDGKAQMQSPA
# human activated kallikrein enzyme, sequence (P03952 20-390 partner limits assumed): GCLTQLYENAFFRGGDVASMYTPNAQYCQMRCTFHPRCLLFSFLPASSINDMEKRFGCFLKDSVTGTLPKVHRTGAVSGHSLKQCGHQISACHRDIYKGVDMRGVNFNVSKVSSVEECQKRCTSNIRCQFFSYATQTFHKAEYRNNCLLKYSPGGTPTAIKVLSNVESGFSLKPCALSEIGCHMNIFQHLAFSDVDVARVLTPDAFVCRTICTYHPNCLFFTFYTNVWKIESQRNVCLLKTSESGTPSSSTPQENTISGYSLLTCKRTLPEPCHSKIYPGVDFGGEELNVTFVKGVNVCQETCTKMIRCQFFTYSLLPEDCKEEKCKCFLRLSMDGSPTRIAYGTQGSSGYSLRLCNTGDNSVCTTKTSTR
row,EC50,SMILES
1,< 1 nM,"O=C(Nc1nccc2nn(Cc3cn4cc(C5CC5)ccc4n3)cc12)[C@H]1C[C@@H]1c1cc(Cl)ccc1-n1cnnn1 (racemic) [Example 586, rac-(1S*,2S*)-2-(5-chloro-2-(1H-tetrazol-1-yl)phenyl)-N-(2-((6-cyclopropylimidazo[1,2-a]pyridin-2-yl)methyl)-2H-pyrazolo[4,3-c]pyridin-4-yl)cyclopropane-1-carboxamide]"
2,1 to 10 nM,"N#Cc1ccc(Cl)cc1[C@@H]1C[C@H]1C(=O)Nc1cc(NCc2cn3cc(C4CC4)ccc3n2)cnn1 (racemic) [Example 102, rac-(1S*,2S*)-2-(5-chloro-2-cyanophenyl)-N-(5-(((6-cyclopropylimidazo[1,2-a]pyridin-2-yl)methyl)amino)pyridazin-3-yl)cyclopropane-1-carboxamide]"
3,< 1 nM,"Cc1cc(NCc2cn3cc(C4CC4)cc(N4CC(=O)N(C)C4=O)c3n2)cc(NC(=O)[C@H]2C[C@@H]2c2nccc(C)n2)n1 [Example I-642, (1S,2S)—N-(4-(((6-cyclopropyl-8-(3-methyl-2,4-dioxoimidazolidin-1-yl)imidazo[1,2-a]pyridin-2-yl)methyl)amino)-6-methylpyridin-2-yl)-2-(4-methylpyrimidin-2-yl)cyclopropane-1-carboxamide]"
4,< 1 nM,"Cc1ccnc([C@H]2C[C@@H]2C(=O)Nc2cc(N[C@H](C)c3cn4cc(C5CC5)cc(N5CC6(COC6)N(C)C5=O)c4n3)nc(C)n2)n1 [Example 435, (1S,2S)-N-(6-(((R)-1-(6-cyclopropyl-8-(5-methyl-6-oxo-2-oxa-5,7-diazaspiro[3.4]octan-7-yl)imidazo[1,2-a]pyridin-2-yl)ethyl)amino)-2-methylpyrimidin-4-yl)-2-(4-methylpyrimidin-2-yl)cyclopropane-1-carboxamide]"
5,10 to 100 nM,"Cc1ccnc([C@H]2C[C@@H]2C(=O)Nc2cc(N3CC(C)(O)C[C@@H]3c3cn4cc(C5CC5)ccc4n3)ncn2)n1 (stereo partly drawn) [Example 426, (1S,2S)-N-(6-((2R)-2-(6-cyclopropylimidazo[1,2-a]pyridin-2-yl)-4-hydroxy-4-methylpyrrolidin-1-yl)pyrimidin-4-yl)-2-(4-methylpyrimidin-2-yl)cyclopropane-1-carboxamide]"
6,1 to 10 nM,"O=C(Nc1cc(NCc2cn3cc(C4CC4)ccc3n2)ncn1)[C@H]1C[C@@H]1c1cccc(Cl)c1 (racemic) [Example 55, rac-(1S*,2S*)-2-(3-chlorophenyl)-N-(6-(((6-cyclopropylimidazo[1,2-a]pyridin-2-yl)methyl)amino)pyrimidin-4-yl)cyclopropane-1-carboxamide]"
7,10 to 100 nM,"Cc1ccnc([C@@H]2C[C@H]2C(=O)Nc2cc(NCc3cn4cc(C5CC5)cc(N5CC(=O)N(C)C5=O)c4n3)ncn2)n1 (single isomer, unassigned) [Example I-261]"
8,10 to 100 nM,"O=C(Nc1ncncc1OCc1cn2cc(C3CC3)ccc2n1)[C@H]1C[C@@H]1c1cccc(Cl)c1 [Example 596, (1S,2S)-2-(3-chlorophenyl)-N-(5-((6-cyclopropylimidazo[1,2-a]pyridin-2-yl)methoxy)pyrimidin-4-yl)cyclopropane-1-carboxamide]"
9,< 1 nM,"Cc1ccnc([C@H]2C[C@@H]2C(=O)Nc2ncnc3nn(Cc4cn5cc(C6CC6)cc(N6CC(=O)N(C)C6=O)c5n4)cc23)n1 (racemic) [Example 632, rac-(1S*,2S*)—N-(2-((6-cyclopropyl-8-(3-methyl-2,4-dioxoimidazolidin-1-yl)imidazo[1,2-a]pyridin-2-yl)methyl)-2H-pyrazolo[3,4-d]pyrimidin-4-yl)-2-(4-methylpyrimidin-2-yl)cyclo propane-1-carboxamide]"
10,< 1 nM,"Cc1ccnc([C@H]2C[C@@H]2C(=O)Nc2ncc3oc(=O)n(Cc4cn5cc(C6CC6)cc(N6CC(=O)N(C)C6=O)c5n4)c3n2)n1 (racemic) [Example 626, rac-(1S*,2S*)—N-(3-((6-cyclopropyl-8-(3-methyl-2,4-dioxoimidazolidin-1-yl)imidazo[1,2-a]pyridin-2-yl)methyl)-2-oxo-2,3-dihydrooxazolo[4,5-d]pyrimidin-5-yl)-2-(4-methylpyrimidin-2-yl)cyclopropane-1-carboxamide]"
11,10 to 100 nM,"O=C(Nc1cc(NCc2cn3cc(C4CC4)ccc3n2)ccn1)[C@H]1C[C@@H]1c1ccc(Cl)s1 (racemic) [Example I-218, rac-(1S*,2S*)-2-(5-chlorothiophen-2-yl)-N-(4-(((6-cyclopropylimidazo[1,2-a]pyridin-2-yl)methyl)amino)pyridin-2-yl)cyclopropane-1-carboxamide]"
12,< 1 nM,"Cc1ccnc([C@H]2C[C@@H]2C(=O)Nc2cc(N[C@H](C)c3cn4cc(C5CC5)cc(N=S(C)(C)=O)c4n3)nc(C)n2)n1 [Example 431, (1S,2S)-N-(6-(((R)-1-(6-cyclopropyl-8-((dimethyl(oxo)-16-sulfaneylidene)amino)imidazo[1,2-a]pyridin-2-yl)ethyl)amino)-2-methylpyrimidin-4-yl)-2-(4-methylpyrimidin-2-yl)cyclopropane-1-carboxamide]"
13,< 1 nM,"O=C(Nc1cc(NCc2cn3cc(C4CC4)cc(N4CCOCC4=O)c3n2)ncn1)[C@H]1C[C@@H]1c1cccc(Cl)c1 (racemic) [Example 74, rac-(1S*,2S*)-2-(3-chlorophenyl)-N-(6-(((6-cyclopropyl-8-(3-oxomorpholino)imidazo[1,2-a]pyridin-2-yl)methyl)amino)pyrimidin-4-yl)cyclopropane-1-carboxamide]"
14,10 to 100 nM,"Nc1ccc(Cl)cc1[C@H]1C[C@@H]1C(=O)Nc1nccc2nn(Cc3cn4cc(C5CC5)ccc4n3)cc12 (racemic) [Example 585, rac-(1S*,2S*)-2-(2-amino-5-chlorophenyl)-N-(2-((6-cyclopropylimidazo[1,2-a]pyridin-2-yl)methyl)-2H-pyrazolo[4,3-c]pyridin-4-yl)cyclopropane-1-carboxamide]"
15,1 to 10 nM,"O=C(Nc1nccc2nn(Cc3cn4cc(C5CC5)ccc4n3)nc12)[C@H]1C[C@@H]1c1cccc(Cl)c1 [Example 583, (1S,2S)-2-(3-chlorophenyl)-N-(2-((6-cyclopropylimidazo[1,2-a]pyridin-2-yl)methyl)-2H-[1,2,3]triazolo[4,5-c]pyridin-4-yl)cyclopropane-1-carboxamide]"
16,100 to 1000 nM,"O=C(Nc1cc(NCc2cn3cc(C4CC4)ccc3n2)ncn1)[C@H]1C[C@@H]1c1ccc(Cl)s1 (racemic) [Example I-185, rac-(1S*,2S*)-2-(5-chlorothiophen-2-yl)-N-(6-(((6-cyclopropylimidazo[1,2-a]pyridin-2-yl)methyl)amino)pyrimidin-4-yl)cyclopropane-1-carboxamide]"
17,1 to 10 nM,"Cc1ccnc([C@H]2C[C@]2(F)C(=O)Nc2cc(N[C@H](C)c3cn4cc(C5CC5)cc(N5CC(=O)N(C)C5=O)c4n3)nc(C)n2)n1 (racemic) [Example 528, rac-(1S*,2S*)-N-(6-(((R)-1-(6-cyclopropyl-8-(3-methyl-2,4-dioxoimidazolidin-1-yl)imidazo[1,2-a]pyridin-2-yl)ethyl)amino)-2-methylpyrimidin-4-yl)-1-fluoro-2-(4-methylpyrimidin-2-yl)cyclopropane-1-carboxamide]"
18,1 to 10 nM,"O=C(Nc1cc(NCc2cn3cc(C4CC4)ccc3n2)ncn1)[C@H]1C[C@@H]1c1cc(Cl)ccc1O (racemic) [Example 313, rac-(1S*,2S*)-2-(5-chloro-2-hydroxyphenyl)-N-(6-(((6-cyclopropylimidazo[1,2-a]pyridin-2-yl)methyl)amino)pyrimidin-4-yl)cyclopropane-1-carboxamide]"
